Here are results for one compound from patent publication US20250065017A1, “Fractionating Extracellular Matrix to Modulate Bioactivity and the Host Response” (University of Pittsburgh - Of the Commonwealth System of …, priority 2014, published 2025).

One test concerns C2C12 murine myoblasts. Description: In vitro myogenesis, THP1/C2C12 transwell co-culture. In kind it is cell-based. As to the method: C2C12 murine myoblasts were obtained from ATCC and grown in complete media (DMEM, 10% FBS, 1% penicillin/streptomycin) at 37° C./5% CO2 according to the ATCC recommendations. Myoblasts were seeded at a density of 5,000 cells/cm^2 in 24 well plates and allowed proliferate to 90% confluence. Cells were then washed in 1×PBS and incubated in differentiation media (DMEM, 2% horse Serum, 1% penicillin/streptomycin) for 24 hours. Cells were washed in 1×PBS and placed in basal media (DMEM, 1% penicillin/streptomycin). A transwell insert (Corning) containing 100,000 differentiated THP1 cells (as described in section 2.9) in 200 μL of complete THP1 cell media was placed in each well. UBM hydrogel (0.5 mg/mL, final concentration) was then added to the THP1 transwell insert only. […] A standardized image capture system and quantitative analysis of in vitro myogenesis was performed as previously described (Goh […], Corbett J T, Pierre […], Pizza F X. Intercellular adhesion molecule-1 expression by skeletal muscle Cells Augments myogenesis. Exp Cell Res 2014). Briefly, custom macro functions (Image […]; Media Cybernetics Inc.) were used to objectively quantify several important myogenesis parameters (e.g., the number of nuclei, myotubes, and nuclei within a myotube). […] The fusion index was calculated by expressing the number of nuclei within myotubes as a percentage of total nuclei.

Test [1] relates to THP1 macrophage-like cells. Description: Secreted factor analysis (ELISA). In kind it is cell-based, human. As to the method:
THP-1 human monocytes were obtained from the American Tissue Culture Collection (ATCC, Manassas, VA) and maintained in RPMI, 10% FBS, 1% penicillin/streptomycin, 2 mM L-glutamine, and 1 mM sodium pyruvate in a humidified atmosphere at 37° C. with 5% CO2. For experiments, 500,000 THP-1 cells/mL were plated with 320 nM phorbol 12-myristate 13-acetate (PMA) for 24 hours to induce differentiation into macrophages. Adherent macrophages were washed in PBS and placed in fresh media, followed by a 24 hour incubation to acquiesce. […] Once cells were prepared as described above, aspirin (200 µM, where appropriate) was added for 1 hour. Subsequently, UBM hydrogel (0.5 mg/mL) or pepsin control buffer (0.05 mg/mL) was added and cells were allowed to incubate for 24-72 hours. After incubation, cells were pelleted by centrifugation (700×g, 5 minutes, 4° C.), and the culture supernatants were carefully removed. Supernatants were stored at -80° C. until the time of assay. Secreted factor concentrations in the culture supernatants were determined using commercially available ELISA kits (PGE2, PGF2α, ENZO Life Sciences) and IL-1RA (R&D Systems)) according to the manufacturer's instructions.
On the technique in general: An ELISA detects its analyte on a solid surface through an enzyme-linked reagent.

For a further test, the system named is brain derived microglia. Briefly: PGE2 secretion in primary microglia. In kind it is cell-based, rat. Conditions: UBM hydrogel 0.5 mg/mL 48 hours; inhibitor pre-treatment 1 hour. As to the method:
Primary microglia from rats were obtained from postnatal day 3 rat pup brains as previously described ([…], Xiao X, Hart RP, Schwartz M. Protective autoimmunity: interferon-gamma enables microglia to remove glutamate without evoking inflammatory mediators. J Neurochem 2005;92(5):997-1009). Whole brains from postnatal day 3 Sprague Dawley rat pups (Charles River) were harvested and minced after removal of the brain stem, olfactory bulbs, and meninges. Tissue was digested for 15 min in 0.25% trypsin/EDTA at 37° C. […] The suspension was centrifuged, diluted in culture media (DMEM/F12, 10% FBS, 2 mM L-glutamine, 1% penicillin/streptomycin), and grown to confluence at 37° C./5% CO2. Culture media was replaced every 2-3 days. At day 11-12 in vitro, enriched microglia were obtained by mechanical agitation (orbital shaker, 150 rpm, 37 C) for 2 hours. The media was collected after the shake-off step and centrifuged (1400 rpm for 5 minutes). The cell pellet was resuspended in culture media (RPMI 1640, 10% FBS, 1 mM L-glutamine, 1 mM sodium pyruvate, 50 μM beta-mercaptoethanol, 1% penicillin and streptomycin) and cells were plated at a density of 500,000/mL. […] Secreted factor concentrations in the culture supernatants were determined using commercially available ELISA kits (PGE2, PGF2α, ENZO Life Sciences) and IL-1RA (R&D Systems)) according to the manufacturer's instructions.

[2] abbreviates: Aspirin 200 μM with UBM hydrogel 0.5 mg/mL, 48 hours.

The structures appear in SMILES notation.

Regarding `CC(=O)Oc1ccccc1C(=O)O` [Aspirin], the myogenesis metrics entry with C2C12 murine myoblasts (Aspirin 200 μM co-administered with UBM 0.5 mg/mL, 48 hours) is reported as “reduced these myogenesis metrics down to control levels”. In the test with C2C12 murine myoblasts (Aspirin with UBM, THP1/C2C12 co culture), the “reduction in fusion index” value came to 92%. In test [1] (setting [2]), the IL-1RA secretion result is given as “did not cause any significant drop in IL-1RA secretion”; the “production of PGE2 and PGF2α” value is “reduced production of both PGE2 and PGF2α down to basal levels”. Further, the PGE2 production entry in test [1] (THP1, UBM hydrogel 0.5 mg/mL 48 hours, inhibitor pre-treatment 1 hour) is “reduced PGE2 production to baseline levels”. Further, in the test on brain derived microglia, the PGE2 production entry is “reduced PGE2 production to baseline levels”.
